Laboratory results reported in patent publication US8192962B2, “Processes for detecting toxic substances” (Daikin Industries, Ltd., priority 2001, dated 2012).

Test system: Metabolism protein genes
Test: DNA chip mRNA expression in yeast, metabolism protein genes (Table 7)
Type: cell-based, Saccharomyces cerevisiae S288C
Summary of the method: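 Expression change after 2 h toxicant exposure (growth-inhibiting, sub-lethal) of log-phase S. cerevisiae S288C at 25° C. Oligo-dT-purified mRNA was labeled with Cy3-dUTP or Cy5-dUTP and hybridized >12 h at 65° C. to a genome-wide chip; ratio of scanned fluorescence to control.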

## C=CC=O [(14), acrolein]
Yeast gene YKL060C
  level of expressed mRNA in the presence/in the absence of chemical substance: 0.8
Yeast gene YKL091C
  The level of expressed mRNA in the presence of chemical substance/The level of expressed mRNA in the absence of chemical substance: 1.5
Yeast gene YKL104C
  The level of expressed mRNA in the presence of chemical substance/The level of expressed mRNA in the absence of chemical substance: 0.8
Yeast gene YKL148C
  level of expressed mRNA in the presence/in the absence of chemical substance: 0.8
Yeast gene YKL152C
  The level of expressed mRNA in the presence of chemical substance/The level of expressed mRNA in the absence of chemical substance: 1.0
Yeast gene YKL157W
  level of expressed mRNA in the presence/in the absence of chemical substance: 0.8
Yeast gene YKL213C
  The level of expressed mRNA in the presence of chemical substance/The level of expressed mRNA in the absence of chemical substance: 0.9
Yeast gene YKL215C
  The level of expressed mRNA in the presence of chemical substance/The level of expressed mRNA in the absence of chemical substance: 1.0
Yeast gene YKR034W
  level of expressed mRNA in the presence/in the absence of chemical substance: 1.1
Yeast gene YKR039W
  The level of expressed mRNA in the presence of chemical substance/The level of expressed mRNA in the absence of chemical substance: 1.2
Yeast gene YLL058W
  The level of expressed mRNA in the presence of chemical substance/The level of expressed mRNA in the absence of chemical substance: 0.8
Yeast gene YLR006C
  level of expressed mRNA in the presence/in the absence of chemical substance: 1.0
Yeast gene YLR044C
  level of expressed mRNA in the presence/in the absence of chemical substance: 0.5
Yeast gene YLR056W
  level of expressed mRNA in the presence/in the absence of chemical substance: 0.7
Yeast gene YLR058C
  level of expressed mRNA in the presence/in the absence of chemical substance: 0.7
Yeast gene YLR081W
  level of expressed mRNA in the presence/in the absence of chemical substance: 1.0
Yeast gene YLR089C
  level of expressed mRNA in the presence/in the absence of chemical substance: 0.7
Yeast gene YLR180W
  The level of expressed mRNA in the presence of chemical substance/The level of expressed mRNA in the absence of chemical substance: 0.6
Yeast gene YLR273C
  The level of expressed mRNA in the presence of chemical substance/The level of expressed mRNA in the absence of chemical substance: 1.3
Yeast gene YLR284C
  level of expressed mRNA in the presence/in the absence of chemical substance: 1.3
Yeast gene YLR299W
  The level of expressed mRNA in the presence of chemical substance/The level of expressed mRNA in the absence of chemical substance: 1.3
Yeast gene YLR300W
  The level of expressed mRNA in the presence of chemical substance/The level of expressed mRNA in the absence of chemical substance: 0.6
Yeast gene YLR303W
  The level of expressed mRNA in the presence of chemical substance/The level of expressed mRNA in the absence of chemical substance: 3.8
Yeast gene YLR304C
  level of expressed mRNA in the presence/in the absence of chemical substance: 0.7
Yeast gene YLR307W
  The level of expressed mRNA in the presence of chemical substance/The level of expressed mRNA in the absence of chemical substance: 1.9
Yeast gene YLR348C
  The level of expressed mRNA in the presence of chemical substance/The level of expressed mRNA in the absence of chemical substance: 1.0
Yeast gene YLR354C
  level of expressed mRNA in the presence/in the absence of chemical substance: 0.9
Yeast gene YLR372W
  level of expressed mRNA in the presence/in the absence of chemical substance: 0.6
Yeast gene YML022W
  level of expressed mRNA in the presence/in the absence of chemical substance: 0.9
Yeast gene YML054C
  The level of expressed mRNA in the presence of chemical substance/The level of expressed mRNA in the absence of chemical substance: 2.1
Yeast gene YML070W
  The level of expressed mRNA in the presence of chemical substance/The level of expressed mRNA in the absence of chemical substance: 1.3
Yeast gene YML100W
  The level of expressed mRNA in the presence of chemical substance/The level of expressed mRNA in the absence of chemical substance: 1.2
Yeast gene YMR008C
  The level of expressed mRNA in the presence of chemical substance/The level of expressed mRNA in the absence of chemical substance: 0.7
Yeast gene YMR011W
  level of expressed mRNA in the presence/in the absence of chemical substance: 0.6
Yeast gene YMR015C
  level of expressed mRNA in the presence/in the absence of chemical substance: 0.8
Yeast gene YMR020W
  The level of expressed mRNA in the presence of chemical substance/The level of expressed mRNA in the absence of chemical substance: 1.1
Yeast gene YMR081C
  The level of expressed mRNA in the presence of chemical substance/The level of expressed mRNA in the absence of chemical substance: 1.8
Yeast gene YMR083W
  level of expressed mRNA in the presence/in the absence of chemical substance: 0.8
Yeast gene YMR105C
  The level of expressed mRNA in the presence of chemical substance/The level of expressed mRNA in the absence of chemical substance: 1.0
Yeast gene YMR189W
  The level of expressed mRNA in the presence of chemical substance/The level of expressed mRNA in the absence of chemical substance: 1.6
Yeast gene YMR205C
  level of expressed mRNA in the presence/in the absence of chemical substance: 0.5
Yeast gene YMR261C
  level of expressed mRNA in the presence/in the absence of chemical substance: 0.6
Yeast gene YMR271C
  The level of expressed mRNA in the presence of chemical substance/The level of expressed mRNA in the absence of chemical substance: 1.8
Yeast gene YMR296C
  The level of expressed mRNA in the presence of chemical substance/The level of expressed mRNA in the absence of chemical substance: 0.7
Yeast gene YMR323W
  level of expressed mRNA in the presence/in the absence of chemical substance: 1.2
Yeast gene YNL012W
  The level of expressed mRNA in the presence of chemical substance/The level of expressed mRNA in the absence of chemical substance: 1.0
Yeast gene YNL025C
  level of expressed mRNA in the presence/in the absence of chemical substance: 1.2
Yeast gene YNL037C
  The level of expressed mRNA in the presence of chemical substance/The level of expressed mRNA in the absence of chemical substance: 1.3
Yeast gene YNL045W
  The level of expressed mRNA in the presence of chemical substance/The level of expressed mRNA in the absence of chemical substance: 0.8
Yeast gene YNL104C
  The level of expressed mRNA in the presence of chemical substance/The level of expressed mRNA in the absence of chemical substance: 0.9
Yeast gene YNL106C
  The level of expressed mRNA in the presence of chemical substance/The level of expressed mRNA in the absence of chemical substance: 1.1
Yeast gene YNL169C
  The level of expressed mRNA in the presence of chemical substance/The level of expressed mRNA in the absence of chemical substance: 0.9
Yeast gene YNL192W
  level of expressed mRNA in the presence/in the absence of chemical substance: 0.7
Yeast gene YNL231C
  The level of expressed mRNA in the presence of chemical substance/The level of expressed mRNA in the absence of chemical substance: 0.9
Yeast gene YNL322C
  The level of expressed mRNA in the presence of chemical substance/The level of expressed mRNA in the absence of chemical substance: 1.2
Yeast gene YNL331C
  The level of expressed mRNA in the presence of chemical substance/The level of expressed mRNA in the absence of chemical substance: 7.5
Yeast gene YNL332W
  The level of expressed mRNA in the presence of chemical substance/The level of expressed mRNA in the absence of chemical substance: 3.0
Yeast gene YNR002C
  The level of expressed mRNA in the presence of chemical substance/The level of expressed mRNA in the absence of chemical substance: 1.2
Yeast gene YNR019W
  The level of expressed mRNA in the presence of chemical substance/The level of expressed mRNA in the absence of chemical substance: 1.0
Yeast gene YNR033W
  The level of expressed mRNA in the presence of chemical substance/The level of expressed mRNA in the absence of chemical substance: 0.9
Yeast gene YNR059W
  The level of expressed mRNA in the presence of chemical substance/The level of expressed mRNA in the absence of chemical substance: 1.0
Yeast gene YOL058W
  The level of expressed mRNA in the presence of chemical substance/The level of expressed mRNA in the absence of chemical substance: 1.5
Yeast gene YOL086C
  level of expressed mRNA in the presence/in the absence of chemical substance: 0.6
Yeast gene YOL108C
  level of expressed mRNA in the presence/in the absence of chemical substance: 0.9
Yeast gene YOL116W
  level of expressed mRNA in the presence/in the absence of chemical substance: 0.9
Yeast gene YOL126C
  The level of expressed mRNA in the presence of chemical substance/The level of expressed mRNA in the absence of chemical substance: 1.2
Yeast gene YOL151W
  The level of expressed mRNA in the presence of chemical substance/The level of expressed mRNA in the absence of chemical substance: 4.0
Yeast gene YOL153C
  The level of expressed mRNA in the presence of chemical substance/The level of expressed mRNA in the absence of chemical substance: 1.5
Yeast gene YOL156W
  level of expressed mRNA in the presence/in the absence of chemical substance: 0.9
Yeast gene YOL165C
  The level of expressed mRNA in the presence of chemical substance/The level of expressed mRNA in the absence of chemical substance: 9.1
Yeast gene YOR002W
  level of expressed mRNA in the presence/in the absence of chemical substance: 0.9
Yeast gene YOR085W
  level of expressed mRNA in the presence/in the absence of chemical substance: 0.7
Yeast gene YOR099W
  The level of expressed mRNA in the presence of chemical substance/The level of expressed mRNA in the absence of chemical substance: 0.7
Yeast gene YOR103C
  level of expressed mRNA in the presence/in the absence of chemical substance: 1.2
Yeast gene YOR108W
  level of expressed mRNA in the presence/in the absence of chemical substance: 0.9
Yeast gene YOR128C
  level of expressed mRNA in the presence/in the absence of chemical substance: 0.7
Yeast gene YOR130C
  The level of expressed mRNA in the presence of chemical substance/The level of expressed mRNA in the absence of chemical substance: 1.3
Yeast gene YOR142W
  level of expressed mRNA in the presence/in the absence of chemical substance: 0.8
Yeast gene YOR176W
  level of expressed mRNA in the presence/in the absence of chemical substance: 0.8
Yeast gene YOR178C
  level of expressed mRNA in the presence/in the absence of chemical substance: 1.0
Yeast gene YOR251C
  level of expressed mRNA in the presence/in the absence of chemical substance: 1.1
Yeast gene YOR336W
  The level of expressed mRNA in the presence of chemical substance/The level of expressed mRNA in the absence of chemical substance: 1.1
Yeast gene YOR347C
  The level of expressed mRNA in the presence of chemical substance/The level of expressed mRNA in the absence of chemical substance: 0.9
Yeast gene YOR348C
  level of expressed mRNA in the presence/in the absence of chemical substance: 1.2
Yeast gene YPL017C
  The level of expressed mRNA in the presence of chemical substance/The level of expressed mRNA in the absence of chemical substance: 1.6
Yeast gene YPL028W
  level of expressed mRNA in the presence/in the absence of chemical substance: 0.8
Yeast gene YPL057C
  level of expressed mRNA in the presence/in the absence of chemical substance: 0.7
Yeast gene YPL135W
  level of expressed mRNA in the presence/in the absence of chemical substance: 1.1
Yeast gene YPL148C
  level of expressed mRNA in the presence/in the absence of chemical substance: 1.6
Yeast gene YPR026W
  The level of expressed mRNA in the presence of chemical substance/The level of expressed mRNA in the absence of chemical substance: 1.5
Yeast gene YPR113W
  level of expressed mRNA in the presence/in the absence of chemical substance: 1.3
Yeast gene YPR165W
  level of expressed mRNA in the presence/in the absence of chemical substance: 1.0
Yeast gene YPR167C
  The level of expressed mRNA in the presence of chemical substance/The level of expressed mRNA in the absence of chemical substance: 4.2
Yeast gene YPR183W
  level of expressed mRNA in the presence/in the absence of chemical substance: 0.7
